Laboratory results reported in patent publication US20100196475A1, “CONTROLLED RELEASE TABLET FORMULATION CONTAINING MAGNESIUM ALUMINOMETASILICATE” (priority 2007, published 2010).
In brackets after ≈: the same amount, converted by molar mass. Counter-ions that a name gives are not always drawn.

Assay: physchem
Type: physicochemical
Details: for solubility: water
Experimental: Four different active agents with different solubilities were selected for the preparation of multi-layer tablets, as follows:
9410 (Prednisone)—solubility of 0.1 mg/ml in water.

Row | solubility described in words | solubility [mg/mL] | SMILES
1 | freely soluble | 257 (≈ 707 mM) | CC(C)(Cc1c[nH]c2ccccc12)NCC(O)COc1ccccc1C#N (stereo not drawn) [compound 8110, Bucindolol]
2 | soluble | 0.1 (≈ 0.279 mM) | C[C@]12C=CC(=O)C=C1CC[C@@H]1[C@@H]2C(=O)C[C@@]2(C)[C@H]1CC[C@]2(O)C(=O)CO [compound 9410, Prednisone]
3 | Very soluble | 1200 | COc1ccc([C@@H]2Sc3ccccc3N(CCN(C)C)C(=O)[C@@H]2OC(C)=O)cc1 [compound 8403, Diltiazem HCl]
